For 3 molecules, IC50 and stoichiometry N results are on record in PMC11722533, “Discovery and mechanism of a highly selective, antifungal acetyl CoA synthetase inhibitor” (Research Square, 2025).

Experiment [1] deals with T1, CnAcs1 (acetyl CoA synthetase) (Cryptococcus neoformans, UniProt J9VFT1).
T1 construct: gene CNAG_00797; His-tagged recombinant CnAcs1 expressed in E. coli
T1 sequence (J9VFT1 1-680): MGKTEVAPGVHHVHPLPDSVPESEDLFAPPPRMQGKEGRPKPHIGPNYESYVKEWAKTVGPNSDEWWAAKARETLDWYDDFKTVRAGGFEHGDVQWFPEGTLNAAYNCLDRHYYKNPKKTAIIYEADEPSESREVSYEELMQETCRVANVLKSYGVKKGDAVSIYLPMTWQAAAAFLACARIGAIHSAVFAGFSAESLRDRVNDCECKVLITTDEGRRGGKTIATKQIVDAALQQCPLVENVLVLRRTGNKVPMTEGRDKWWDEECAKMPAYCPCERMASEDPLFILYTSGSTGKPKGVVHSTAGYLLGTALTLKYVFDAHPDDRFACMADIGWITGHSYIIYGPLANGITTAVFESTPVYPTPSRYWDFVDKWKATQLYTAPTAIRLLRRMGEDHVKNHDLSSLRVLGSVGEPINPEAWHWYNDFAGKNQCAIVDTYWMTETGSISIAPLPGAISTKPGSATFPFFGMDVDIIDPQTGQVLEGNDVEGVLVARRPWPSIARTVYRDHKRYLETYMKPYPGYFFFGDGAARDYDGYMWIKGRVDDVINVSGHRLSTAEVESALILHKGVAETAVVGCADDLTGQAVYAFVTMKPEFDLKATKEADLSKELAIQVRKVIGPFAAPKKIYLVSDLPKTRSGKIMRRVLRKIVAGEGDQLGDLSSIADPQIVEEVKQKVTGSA
Description: coupled pyrophosphate-release enzyme assay. In kind it is biochemical.

For experiment [2], the target named is T1, CnAcs1 (acetyl CoA synthetase). Description: X-ray co-crystal structure. In kind it is biochemical. The note with it: cited from earlier work. The source says:
X-ray co-crystal structure on CnAcs1 (acetyl CoA synthetase) | we obtained an X-ray crystal structure of CnAcs1 bound to the cyclopropyl-AMP ester

The target in experiment [3] is Cryptococcus neoformans Acs1 (acetyl CoA synthetase) (C. neoformans). Description: crystal structure; co-crystal of CnAcs1 (10 mg/mL in 20 mM NaCl, 20 mM Tris pH 8.5, 1 mM TCEP) with 2 mM isoxazole 1; sitting drop vapor diffusion at 18 °C; PDB 9CD8.
Experiment [4] shares this target. Description: mass photometry; single molecule, in solution, to low concentrations; with and without supra-inhibitory isoxazole 1 (apparent size unchanged).

Consider `O=C(NNC(=O)c1csnn1)c1ccc(Cl)cc1` [MMV084978], for which the IC50 in experiment [1] turned out to be 2800 nM.
Take `Nc1ncnc2c1ncn2[C@@H]1O[C@H](COP(=O)(O)OC2CC2)[C@@H](O)[C@H]1O` [cyclopropyl-AMP]: the IC50 in experiment [2] is 9 µM.
In the case of “Cryptococcus neoformans Acs1 (acetyl CoA synthetase) (enzyme)”, the stoichiometry N in experiment [3] and in experiment [4] was 3 in each case.
